From patent publication US20150175599A1, “FAAH Inhibitors” (Ironwood Pharmaceuticals, Inc., priority 2010, published 2015)

The compounds below were run against T1, human cannabinoid receptor, CB1 (Homo sapiens, UniProt P21554) (assay: Human CB1 cannabinoid receptor radioligand binding assay ([3H]-CP 55,940)). Details: Table 4.
T1 construct: (cDNA clone) CNR01L000; membranes prepared from it
Excerpt: cDNA expression clones for human CB1 (hCB 1, Genbank Accession No. AY225225) expressed in vector pcDNA3.1+ were purchased from UMR cDNA Resource Center, Rolla, Mo. (Clone ID CNR01L000 for hCB 1).
Stable, HEK-293-derived cell lines that recombinantly express hCB 1 were established. In brief, the clone hCB 1 (CNR1L) was transfected into human embryonic kidney cells (HEK-293) using Lipofectamine 2000 (Gibco, Cat#11668-019) according to the manufacturer's protocol. Transfected clones were isolated by single colony purification and clones were screened for receptor expression using a whole cell, ^3H-CP 55,940 radioligand binding assay. HEK-293 stable cells were maintained in Dulbecco's modified Eagles medium (DMEM) containing 10% fetal bovine serum, 2 mM L-glutamine and 0.5 mg/mL G-418.
Membranes were isolated from transfected cells as follows. Monolayers of cultured cells were washed twice with phosphate-buffered saline (PBS). […] Protein concentration of membrane suspensions were measured by Bradford Protein Assay using bovine serum albumin as the standard (BioRad catalog #500-0006). […]
Radioligand binding assays were performed by incubating membranes (2-10 ug protein) prepared from HEK-293 cells expressing recombinant human cannabinoid receptor, CB1, at room temperature with 0.5 nM cannabinoid receptor agonist, [^3H]-CP 55,940 (Perkin Elmer, catalog #NET1051) in 0.2 mL of binding buffer (50 mM Tris-HCl, pH 7.5, 5 mM MgCl2, 2.5 mM EDTA) and 0.1% fatty acid free bovine serum albumin (Sigma Cat. #A0821) for 90 minutes. […] The radioactivity bound to the filters was counted with 0.05 mL of liquid scintillant (UltraGold MV, PerkinElmer catalog #6013159) in a scintillation counter (Perkin Elmer Microbeta instrument). Nonspecific binding was determined in the presence of unlabeled 1 uM CP 55,940 (Sigma Aldrich, catalog #C1112). Binding data were analyzed using GraphPad Prism (GraphPad Software, Inc. San Diego, Calif.).

T1 sequence (P21554 whole entry): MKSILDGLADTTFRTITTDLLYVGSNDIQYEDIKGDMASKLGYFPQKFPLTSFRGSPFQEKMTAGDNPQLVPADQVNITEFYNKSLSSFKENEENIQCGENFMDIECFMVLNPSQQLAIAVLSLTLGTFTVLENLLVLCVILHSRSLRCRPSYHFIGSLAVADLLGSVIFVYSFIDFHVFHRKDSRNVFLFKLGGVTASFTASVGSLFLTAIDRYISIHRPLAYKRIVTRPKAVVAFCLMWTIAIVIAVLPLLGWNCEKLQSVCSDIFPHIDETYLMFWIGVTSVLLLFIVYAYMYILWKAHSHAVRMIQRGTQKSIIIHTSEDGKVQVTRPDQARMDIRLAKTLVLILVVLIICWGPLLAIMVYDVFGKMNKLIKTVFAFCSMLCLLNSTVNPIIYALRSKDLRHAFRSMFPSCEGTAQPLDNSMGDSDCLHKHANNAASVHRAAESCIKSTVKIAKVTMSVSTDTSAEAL

| Structure (SMILES) | IC50 [µM] |
| --- | --- |
| COc1ccc2c(c1)c(C(=O)C(=O)Nc1ccnc(OC)c1)c(C)n2Cc1ncc(Cl)cc1OC [Compound 100, 2-(1-((5-chloro-3-methoxypyridin-2-yl)methyl)-5-methoxy-2-methyl-1H-indol-3-yl)-N-(2-methoxypyridin-4-yl)-2-oxoacetamide] | > 10 |
| COc1cc(NC(=O)C(=O)c2c(C)n(Cc3ncc(F)cc3F)c3cc(F)c(OC)cc23)ccn1 [Compound 101, 2-(1-((3,5-difluoropyridin-2-yl)methyl)-6-fluoro-5-methoxy-2-methyl-1H-indol-3-yl)-N-(2-methoxypyridin-4-yl)-2-oxoacetamide] | 1 to 10 |
| COc1cc(NC(=O)C(=O)c2c(C)n(Cc3ncc(Cl)cc3F)c3cc(F)c(OC)cc23)ccn1 [Compound 99, 2-(1-((5-chloro-3-fluoropyridin-2-yl)methyl)-6-fluoro-5-methoxy-2-methyl-1H-indol-3-yl)-N-(2-methoxypyridin-4-yl)-2-oxoacetamide] | 1 to 10 |
